The values below come from US8039514B2, “Sulfonamide compounds and use thereof” (Asahi Kasei Pharma Corporation, priority 2008, dated 2011).

This experiment concerns the target T1, human calcium-sensing receptor (CaSR) (Homo sapiens, UniProt P41180).
T1 construct: expressed in transfected cells
T1 sequence (P41180 20-1078): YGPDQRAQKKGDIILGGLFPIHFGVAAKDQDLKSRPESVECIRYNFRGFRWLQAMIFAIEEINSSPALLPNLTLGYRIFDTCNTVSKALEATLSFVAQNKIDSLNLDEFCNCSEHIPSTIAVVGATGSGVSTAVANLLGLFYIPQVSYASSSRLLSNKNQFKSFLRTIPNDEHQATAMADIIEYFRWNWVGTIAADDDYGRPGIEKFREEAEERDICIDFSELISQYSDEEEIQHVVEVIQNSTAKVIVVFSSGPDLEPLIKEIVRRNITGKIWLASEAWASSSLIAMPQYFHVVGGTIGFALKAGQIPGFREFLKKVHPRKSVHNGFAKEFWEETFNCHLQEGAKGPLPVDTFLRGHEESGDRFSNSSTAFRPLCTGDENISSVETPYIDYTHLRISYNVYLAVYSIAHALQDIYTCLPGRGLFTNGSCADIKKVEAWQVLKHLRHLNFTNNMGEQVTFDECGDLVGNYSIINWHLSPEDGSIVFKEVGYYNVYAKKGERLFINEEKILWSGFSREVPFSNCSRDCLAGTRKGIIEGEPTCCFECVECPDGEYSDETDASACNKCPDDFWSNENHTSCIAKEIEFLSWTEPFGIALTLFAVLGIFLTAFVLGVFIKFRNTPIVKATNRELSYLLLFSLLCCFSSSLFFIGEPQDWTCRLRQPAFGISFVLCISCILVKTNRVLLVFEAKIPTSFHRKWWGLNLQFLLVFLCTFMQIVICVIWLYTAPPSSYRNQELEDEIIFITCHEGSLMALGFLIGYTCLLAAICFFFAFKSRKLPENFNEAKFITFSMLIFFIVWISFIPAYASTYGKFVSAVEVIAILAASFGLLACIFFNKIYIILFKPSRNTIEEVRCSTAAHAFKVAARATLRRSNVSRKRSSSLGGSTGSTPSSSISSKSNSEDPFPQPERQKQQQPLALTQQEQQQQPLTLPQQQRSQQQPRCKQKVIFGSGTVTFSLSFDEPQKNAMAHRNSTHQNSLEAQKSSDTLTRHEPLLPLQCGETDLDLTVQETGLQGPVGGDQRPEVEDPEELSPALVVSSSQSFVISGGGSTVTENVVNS
Nature of the experiment: intracellular Ca assay, CaSR antagonist activity in HEK293/hCaSR cells. The following applies: Fura2-AM, inhibition of response to calcium chloride ligand solution, read-out: IC50 values according to the intracellular Ca assay (CaSR antagonist activity). Format: cell-based. The method, then:
HEK293 cells stably expressing human calcium-sensing receptor (CaSR) (termed HEK293/hCaSR cells) were used. HEK293/hCaSR cells were cultured in a culture medium [DMEM medium containing 0.5 mg/mL Geneticin, 50 Unit/mL penicillin, 50 μg/mL streptomycin and 10% fetal bovine serum (FBS), all manufactured by Invitrogen] to semiconfluent in an incubator at 37° C. under 5% carbon dioxide atmosphere.
Cultured cells were washed with phosphate buffered saline (PBS(−), manufactured by Dainippon Sumitomo Pharmaceutical Company) which had been prewarmed to 37° C., added with PBS(−) containing 10 mM ethylenediamine tetraacetic acid (EDTA), and then incubated in an incubator at 37° C. for 10 minutes. After adding the culture medium to separate the cells, cell suspension was transferred to a centrifuge tube. Cells were collected by centrifuge at 1,500 rpm for 3 minutes, and resuspended in Ca assay buffer [20 mM HEPES buffer (pH 7.4), 115 mM sodium chloride, 5.4 mM potassium chloride, 0.8 mM magnesium chloride, 0.8 mM calcium chloride, 13.8 mM D(+)-glucose (all manufactured by Wako Pure Chemicals) and 0.1% bovine serum albumin (manufactured by SIGMA)] containing 0.2% Pluronic F-127 (manufactured by Molecular Probes) and […] Fura2-AM (manufactured by DOJINDO LABORATORIES) to obtain a cell suspension of 5×10^6 cells/mL. After incubating at 37° C. for 30 minutes, the cells were washed twice with the Ca assay buffer and suspended in the same buffer to obtain a cell suspension of 1×10^6 cells/60 μL. 60 μL of the cell suspension was aliquoted to each well of a 96 well UV microplate (manufactured by Corning Co.) to give a cell plate.
The test compound was diluted with the Ca assay buffer to five times the final concentration and then 80 μL of the diluted compound was applied to each well of a 96 well round bottomed microplate (manufactured by Corning Co.) to give a sample plate. 80 μL of the Ca assay buffer containing 7.5 mM calcium chloride (i.e., ligand solution) was applied to each well of a 96 well round bottomed microplate to give a ligand plate. Then, thus prepared sample plate, ligand plate, and the cell plate were placed in Functional Drug Screening System (FDSS) 4000 (manufactured by Hamamatsu Photonics K.K.) which had been preswitched on and prewarmed to 37° C. Measurements were then carried out as follows. After incubating the cell plate for 180 seconds, fluorescence intensity was measured every two seconds (excitation wavelength; 340 nm and 380 nm, measurement wavelength; 500 nm). After the measurement for 40 seconds, 20 μL of the test compound solution from the sample plate was added to the cell plate, followed by continuous measurement for 160 seconds. Then, 20 μL of the ligand solution from the ligand plate was added to the cell plate, followed by continuous measurement for 100 seconds.
Amount of change in intracellular Ca concentration is indicated as a peak height of the ratio of the fluorescence intensity with excitation of 340 nm and 380 nm (i.e., fluorescence intensity with excitation at 340 nm/fluorescence intensity with excitation at 380 nm) that is obtained from the difference between the maximum ratio after adding the ligand solution and the ratio before adding the ligand solution. Further, when the peak height obtained from the Ca assay buffer containing no test compound has inhibition ratio of 0% while the peak height obtained from the Ca assay buffer containing no calcium chloride as a ligand solution has inhibition ratio of 100%, inhibition ratio for each test compound (i.e., CaSR antagonist activity) was calculated.
By IC50 is commonly meant the concentration needed to halve the response being measured. Regarding `CN(C[C@H](O)CNC(C)(C)Cc1ccc2ccccc2c1)S(=O)(=O)c1cccc(-c2ccc(NC(=O)CCC(=O)O)cc2)c1` [Exp. 3-21, (R)-4-(3′-(N-(2-hydroxy-3-(2-methyl-1-(naphthalen-2-yl)propan-2-ylamino)propyl)-N-methylsulfamoyl)biphenyl-4-ylamino)-4-oxobutanoic acid], the IC50 is 300 to 1000 nM. As for `COCc1cc(-c2cccc(S(=O)(=O)N(C)C[C@H](O)CNC(C)(C)Cc3ccc4ccccc4c3)c2)ccc1C(=O)O` [Exp. 3-22, (R)-3′-(N-(2-hydroxy-3-(2-methyl-1-(naphthalen-2-yl)propan-2-ylamino)propyl)-N-methylsulfamoyl)-3-(methoxymethyl)biphenyl-4-carboxylic acid], the IC50 lay in the range of 300 to 1000 nM. As for `CN(C[C@H](O)CNC(C)(C)Cc1ccc2ccccc2c1)S(=O)(=O)c1cccc(-c2cc(F)cc(C(=O)O)c2)c1` [Exp. 3-23, (R)-5-fluoro-3′-(N-(2-hydroxy-3-(2-methyl-1-(naphthalen-2-yl)propan-2-ylamino)propyl)-N-methylsulfamoyl)biphenyl-3-carboxylic acid], the IC50 was at most 300 nM. Turning to `CN(C[C@H](O)CNC(C)(C)Cc1ccc2ccccc2c1)S(=O)(=O)c1cccc(-c2ccc(C(=O)O)c(O)c2)c1` [Exp. 3-24, (R)-3-hydroxy-3′-(N-(2-hydroxy-3-(2-methyl-1-(naphthalen-2-yl)propan-2-ylamino)propyl)-N-methylsulfamoyl)biphenyl-4-carboxylic acid], the IC50 was 300 to 1000 nM. With `CN(C[C@H](O)CNC(C)(C)Cc1ccc2ccccc2c1)S(=O)(=O)c1cccc(-c2cc(F)c(C(=O)O)c(F)c2)c1` [Exp. 3-25, (R)-3,5-difluoro-3′-(N-(2-hydroxy-3-(2-methyl-1-(naphthalen-2-yl)propan-2-ylamino)propyl)-N-methylsulfamoyl)biphenyl-4-carboxylic acid], the IC50 lay within 300 to 1000 nM. Consider `CN(C[C@H](O)CNC(C)(C)Cc1ccc2ccccc2c1)S(=O)(=O)c1cccc(-c2ccc(C(=O)O)s2)c1` [Exp. 3-26, (R)-5-(3-(N-(2-hydroxy-3-(2-methyl-1-(naphthalen-2-yl)propan-2-ylamino)propyl)-N-methylsulfamoyl)phenyl)thiophen-2-carboxylic acid], for which the concentration for half-maximal inhibition (IC50) lay in the range of 300 to 1000 nM. For `CN(C[C@H](O)CNC(C)(C)Cc1ccc2ccccc2c1)S(=O)(=O)c1cccc(-c2ccc(C(=O)NCCC(=O)O)cc2)c1` [Exp. 3-27, (R)-3-(3′-(N-(2-hydroxy-3-(2-methyl-1-(naphthalen-2-yl)propan-2-ylamino)propyl)-N-methylsulfamoyl)biphenyl-4-ylcarboxamide)propionic acid], the IC50 was in the range of 300 to 1000 nM. For the compound `CN(C[C@H](O)CNC(C)(C)Cc1ccc2ccccc2c1)S(=O)(=O)c1cccc(-c2ccc(NCC(=O)O)cc2)c1` [Exp. 3-28, (R)-2-(3′-(N-(2-hydroxy-3-(2-methyl-1-(naphthalen-2-yl)propan-2-ylamino)propyl)-N-methylsulfamoyl)biphenyl-4-ylamino)acetic acid], the concentration for half-maximal inhibition (IC50) was 300 to 1000 nM.

Take `CN(C[C@H](O)CNC(C)(C)Cc1ccc2ccccc2c1)S(=O)(=O)c1ccc(-c2ccccc2C(=O)O)cc1` [Exp. 3-29, (R)-4′-(N-(2-hydroxy-3-(2-methyl-1-(naphthalen-2-yl)propan-2-ylamino)propyl)-N-methylsulfamoyl)biphenyl-2-carboxylic acid]: the IC50 was in the range of 300 to 1000 nM. The value for `CN(C[C@H](O)CNC(C)(C)Cc1ccc2ccccc2c1)S(=O)(=O)c1ccc(-c2cccc(C(=O)O)c2)cc1` [Exp. 3-30, (R)-4′-(N-(2-hydroxy-3-(2-methyl-1-(naphthalen-2-yl)propan-2-ylamino)propyl)-N-methylsulfamoyl)biphenyl-3-carboxylic acid] was at most 300 nM. On to `CN(C[C@H](O)CNC(C)(C)Cc1ccc2ccccc2c1)S(=O)(=O)c1ccc(-c2ccc(C(=O)O)cc2)cc1` [Exp. 3-31, (R)-4′-(N-(2-hydroxy-3-(2-methyl-1-(naphthalen-2-yl)propan-2-ylamino)propyl)-N-methylsulfamoyl)biphenyl-4-carboxylic acid], for which the IC50 was in the range of 300 to 1000 nM. The value for `Cc1ccc(-c2ccc(S(=O)(=O)N(C)C[C@H](O)CNC(C)(C)Cc3ccc4ccccc4c3)cc2)cc1C(=O)O` [Exp. 3-32, (R)-4′-(N-(2-hydroxy-3-(2-methyl-1-(naphthalen-2-yl)propan-2-ylamino)propyl)-N-methylsulfamoyl)-4-methylbiphenyl-3-carboxylic acid] was 1000 to 3000 nM.

Take `Cc1cc(-c2ccc(S(=O)(=O)N(C)C[C@H](O)CNC(C)(C)Cc3ccc4ccccc4c3)cc2)ccc1C(=O)O` [Exp. 3-33, (R)-4′-(N-(2-hydroxy-3-(2-methyl-1-(naphthalen-2-yl)propan-2-ylamino)propyl)-N-methylsulfamoyl)-3-methylbiphenyl-4-carboxylic acid]: the IC50 lay in the range of 300 to 1000 nM. In the case of `CN(C[C@H](O)CNC(C)(C)Cc1ccc2ccccc2c1)S(=O)(=O)c1ccc(-c2ccc(C(=O)O)c(N)c2)cc1` [Exp. 3-34, (R)-3-amino-4′-(N-(2-hydroxy-3-(2-methyl-1-(naphthalen-2-yl)propan-2-ylamino)propyl)-N-methylsulfamoyl)biphenyl-4-carboxylic acid], the IC50 lay in the range of 1000 to 3000 nM. Turning to `CN(C[C@H](O)CNC(C)(C)Cc1ccc2ccccc2c1)S(=O)(=O)c1ccc(-c2ccc(C(=O)O)cc2F)cc1` [Exp. 3-35, (R)-2-fluoro-4′-(N-(2-hydroxy-3-(2-methyl-1-(naphthalen-2-yl)propan-2-ylamino)propyl)-N-methylsulfamoyl)biphenyl-4-carboxylic acid], the IC50 was in the range of 300 to 1000 nM.

Regarding `CN(C[C@H](O)CNC(C)(C)Cc1ccc2ccccc2c1)S(=O)(=O)c1ccc(-c2cc3c(c(C(=O)O)c2)OCC3)cc1` [Exp. 3-36, (R)-5-(4-(N-(2-hydroxy-3-(2-methyl-1-(naphthalen-2-yl)propan-2-ylamino)propyl)-N-methylsulfamoyl)phenyl)-2,3-dihydrobenzofuran-7-carboxylic acid], the concentration for half-maximal inhibition (IC50) lay in the range of 1000 to 3000 nM.

For `CN(C[C@H](O)CNC(C)(C)Cc1ccc2ccccc2c1)S(=O)(=O)c1ccc(-c2cccc(C=CC(=O)O)c2)cc1` [Exp. 3-39, (R)-3-(4′-(N-(2-hydroxy-3-(2-methyl-1-(naphthalen 2-yl)propan-2-ylamino)propyl)-N-methylsulfamoyl)biphenyl-3-yl)acrylic acid], the IC50 was in the range of 300 to 1000 nM.
